Source: patent US20190175534A1, “PHARMACEUTICAL COMPOSITIONS COMPRISING DGLA AND USE OF SAME” (DS Biopharma Limited, priority 2016, published 2019)

Test system: patients with moderate to severe atopic dermatitis
Experiment: Phase II study of oral DS107G: eosinophil concentrations and responders by ethnicity
Format: in vivo, human
Details: for Patients classified as Responders: IGA 0 or 1 at Week 8 with 2-point decrease
Procedure: The primary endpoint can be translated as a responder analysis where a subject is classified as Responder if he/she achieves an IGA score of 0 (clear) or 1 (almost clear) at Week 8, considering a 2-point decrease from baseline. The comparison between groups for the primary endpoint was done using a Cochran-Mantel-Haenszel test, with site included as a stratification factor. A supportive analysis was performed using a Fisher's exact test. The primary efficacy analysis was done using observed values and a supportive analysis was conducted using the last observation carried forward (LOCF) approach. The analyses was done using the ITT population and served as the primary analysis, while the analysis of the primary endpoint using the PP population was used as a sensitivity analysis.
A surprising discovery was observed when the data was further interrogated.
Eosinophils are a type of white blood cell that play an important role in the body's response to allergic reactions, asthma, and infection with parasites. Eosinophils usually account for less than 7% of the circulating white blood cells (100 to 500 eosinophils per microliter of blood). These cells have a role in the protective immunity against certain parasites but also contribute to the inflammation that occurs in allergic disorders.
FIG. 30A-B. In particular, 56% of DS107-treated African America patients were classified as Responders, versus only 7% of Caucasian patients. FIG. 31A-B. As discussed in detail above, a subject is classified as a Responder if he/she achieves an IGA score of 0 (clear) or 1 (almost clear) at Week 8, considering a 2-point decrease from baseline. FIG. 32 depicts the same data for eosinophil concentrations in all Responders in the total population (FIG. 32A) and for DS107 treated patients (FIG. 32B) and placebo treated patients (FIG. 32C). […] FIG. 33A-C. […] FIGS. 34A-C and FIGS. 35A-C.

For `CCCCC/C=C\C/C=C\C/C=C\CCCCCCC(=O)O` [DGLA, Dihomo gamma linolenic acid], the “Patients classified as Responders” value (African America patients) was 56%, the “Patients classified as Responders” value (Caucasian patients) was 7% and the “Response rate in subjects having low baseline eosinophil counts” value (in vivo) was “higher response rate”.
